Measurements: doi:10.1101/2025.04.10.648262, “Time-resolved phenotyping at subcellular resolution reveals shared principles and key trade-offs across antimicrobial peptide activities” (bioRxiv, 2026)
Bridge positions count the residues as written; N and C are the ends. Square brackets hold non-standard residues; d marks the D form. Peptide text beside a SMILES is read from it. Nspe = C[C@H](NCC(=O)O)c1ccccc1; Nlys = NCCCCNCC(=O)O

Key:
E. coli strain (CJW7845) = assay: Time-lapse single-cell phenotyping of inner/outer membrane permeabilization to proteins and growth arrest in microwells; assay type: cell-based, Escherichia coli; parameters: key to Class (timing of growth arrest relative to IM permeabilization to proteins): Class I AMPs and PMs cause growth arrest predominantly associated with inner membrane (IM) permeabilization; class II compounds inhibit growth without substantial IM permeabilization; settings: for Class (timing of growth arrest relative to IM permeabilization to proteins) / Type (relative timing of OM and IM permeabilization) / OM-permeabilized cells among IM-permeabilized cells: 2X MIC; for Class (timing of growth arrest relative to IM permeabilization to proteins) / Type (relative timing of OM and IM permeabilization): CJW7845, M9gluCAAT, 37°C, time-lapse microscopy; for OM-permeabilized cells among IM-permeabilized cells: CJW7845, during the experiment; for OM-permeabilized cells (out of all IM-permeabilized cells): 10X MIC, CJW7845
Experimental: For experiments with PDMS microwells, cells were allowed to grow for ~30 min in the temperature-controlled enclosure prior to imaging. A 10X concentrated AMP solution was spiked in (at 1/10 the volume of the well) and mixed well by pipetting after ~20 min from the start of the image acquisition, without interrupting the timelapse sequence. When the uptake of SYTOX Green was monitored, SYTOX Green was included in the AMP solution and spiked in during the experiment to obtain a final concentration of SYTOX Green of 50 nM in the well. This allowed us to monitor healthy cell growth prior to AMP treatment, to rapidly set the desired AMP (or SYTOX Green) concentration from one frame to the next (unlike for flow-controlled injection systems), and to resolve the AMP-induced phenotype in real time. The current design allows for testing up to four independent conditions in parallel.
To analyse the single-cell experiments in microwells, OmniSegger software (https://github.com/tlo-bot/omnisegger), which combines SuperSegger MATLAB-based suite ([Stylianidou et al., 2016]) for cell analysis with Omnipose segmentation ([Cutler et al., 2022]), was used to first process the microscopy images by performing drift correction, cell segmentation, and cell linking. Given that AMP-treated cells can display extreme phenotypes, such as exceedingly bright and/or heterogeneous phase contrast signal (likely a result of the widely changing intracellular density upon AMP treatment) and that the software’s pre-trained model bact_phase_omni ([Cutler et al, 2022]) tended to split cells before cell division was completed, a new Omnipose model was trained from scratch starting from bact_phase_omni-generated masks that were further corrected and curated using custom-made Python scripts (screening_good_bad.py and generate_training_dataset.py). Details on the Omnipose model retraining can be found in a previous publication ([Thappeta et al., 2025]). The final model (omnipose_phase_microwells_model) and corresponding training datasets are available at https://github.com/JacobsWagnerLab/published/tree/master/Fragasso_et_al_2025 and BioImage Archive (accession number: S-BIAD1823), respectively.
MATLAB files of the linked cell trajectories output from OmniSegger were then imported, background subtracted using background_subtraction.py, which was adapted from a previous study ([Papagiannakis et al., 2025]), and converted to Python data structures (import_processing_code.py), from which cell features such as cell area, nucleoid area, mean fluorescence intensity, etc., were extracted for each cell at each frame. The exported dataframes were further processed to estimate instantaneous growth rates and were run through a series of functions to perform curation based on cell areas and instantaneous growth rates over time (post_processing_curation_functions.py). […] Represented data points were pooled from multiple replicates.
Analysis of strain CJW7845 proceeded by extracting the timings of permeabilization of the outer and inner membranes based on the mean fluorescence intensities of mScarlet-I and/or mTagBFP2 fluorescent proteins (using function get_permeabilization_time.py), cell growth arrest, and the initiation time of growth inhibition. To obtain accurate timings underlying membrane permeabilization events, information from both the signal intensity itself as well as its derivative were combined, which enabled us to accurately resolve the relevant changes in fluorescent protein signal beyond the intrinsic high-frequency noise and low-frequency photobleaching. Inner membrane permeabilization to proteins can result in two possible phenotypes when simultaneously monitoring freely diffusing periplasmic and cytoplasmic probes, depending on which membrane (outer or inner) becomes permeabilized first. When the outer membrane is first permeabilized, mScarlet-I signal is lost first, followed by mTagBFP2 when the inner membrane becomes also permeabilized. […]

E. coli ATCC 25922 = assay type: cell-based, Escherichia coli; settings: E. coli ATCC 25922, M9gluCAAT, 37°C, 20 h; mode across four biological replicates
Experimental: Strain ATCC 25922GFP (ATCC, Virginia, USA), which carries a GFP-expressing plasmid, was selected for biofilm experiments. The strain’s ability to form biofilms was first verified at 37°C using Congo Red staining on agar plate containing M9gluCAAT. Congo Red dye binds curli, a major component of the biofilm extracellular matrix. Strain ATCC 25922 (lacking the GFP-expressing plasmid) was used for MIC determination (to avoid interference from the presence of ampicillin required to maintain the plasmid) following the standard growth protocol described above.
To determine the minimal inhibitory concentration (MIC) of the selected AMPs against either MG1655 or ATCC 25922 E. coli strains, exponentially growing cells were diluted in fresh medium to an OD = 10^−6 (~500 cells/mL) and mixed 50:50 with titrated AMP concentrations (which were chosen to be over a range that included the MIC) in a 96-well plate (flat bottom with low evaporation lid, 3595, Corning, Arizona, USA). A final OD of 5 × 10^−7 corresponds to ~250 cells/mL. OD curves were sampled every 5 min for a total of 48 h using a microplate reader (BioTek Synergy 2, Agilent Technologies Inc., California, USA). Raw data were exported as a text file and analysed using a custom-written Python script (microplate_reader_analysis.py). To measure maximum growth rates, the log(OD) was fitted using a linear regression over a 12-point moving window (60 min), which provides the instantaneous growth rate (log(OD)/h), from which the global maximum was computed. The MIC was defined as the minimum AMP concentration for which the maximum growth rate was < 0.2 log(OD)/h within the first 20 h of incubation. Each MIC experiment was performed independently at least three times (with at least two technical replicates each), and the mode across all replicates was taken as the final MIC; in the rare cases of a tie, an additional replicate was performed, which was sufficient to resolve it.

CC[C@@H](C)[C@@H](NC(=O)[C@@H](C)NC(=O)[C@@H](CCCNC(=N)N)NC(=O)[C@@H](Cc1c[nH]c2ccccc12)NC(=O)[C@@H](CCC(N)=O)NC(=O)[C@H](N)C(C)C)C(=O)N[C@H](CCCNC(=N)N)C(=O)N[C@@H](C(=O)N[C@H](CCCNC(=N)N)C(=O)N[C@@H](C(=O)N[C@@H](C(=O)N[C@H](CCCNC(=N)N)C(N)=O)[C@H](C)CC)C(C)C)C(C)C [DJK-5] (H-[dV][dQ][dW][dR][dA][dI][dR][dV][dR][dV][dI][dR]-NH2; N-terminus and C-terminus assumed)
Class (timing of growth arrest relative to IM permeabilization to proteins) (E. coli strain (CJW7845)): II | Type (relative timing of OM and IM permeabilization) (E. coli strain (CJW7845)): B (type B AMPs and PMs permeabilize the IM well before (>10 min) the OM) | OM-permeabilized cells among IM-permeabilized cells (E. coli strain (CJW7845)): 81/151 | Cells in which the IM became permeabilized (E. coli strain (CJW7845); concentrations close to the MIC (2X MIC)): > 60%

CC[C@H](C)[C@@H]1NC(=O)CNC(=O)[C@H](CCCNC(=N)N)NC(=O)[C@H](Cc2ccc(O)cc2)NC(=O)[C@@H]2CSSC[C@H](NC1=O)C(=O)N[C@@H](Cc1ccc(O)cc1)C(=O)N[C@@H](CCCNC(=N)N)C(=O)N[C@@H](CCCNC(=N)N)C(=O)N[C@H](C(=O)N[C@@H](CCCNC(=N)N)C(N)=O)CSSC[C@H](NC(=O)[C@H](Cc1c[nH]c3ccccc13)NC(=O)[C@@H](N)CCCCN)C(=O)N[C@@H](Cc1ccccc1)C(=O)N[C@@H](CCCNC(=N)N)C(=O)N[C@@H](C(C)C)C(=O)N2 [Tac1, tachyplesin-1] (H-KWCFRVCYRGICYRRCR-NH2; disulfide 3-16, 7-12 (inferred); N-terminus assumed)
MIC (mode MIC) (E. coli ATCC 25922): 1.2 µM | Class (timing of growth arrest relative to IM permeabilization to proteins) (E. coli strain (CJW7845)): I | Type (relative timing of OM and IM permeabilization) (E. coli strain (CJW7845)): A (type A AMPs predominantly permeabilize the outer membrane (OM) within 10 min of the IM) | OM-permeabilized cells among IM-permeabilized cells (E. coli strain (CJW7845)): 273/273 | OM-permeabilized cells (out of all IM-permeabilized cells) (E. coli strain (CJW7845)): 82/128

C[C@@H](c1ccccc1)N(CC(N)=O)C(=O)CN(C(=O)CN(CCCCN)C(=O)CN(C(=O)CN(C(=O)CN(CCCCN)C(=O)CN(C(=O)CN(C(=O)CN(CCCCN)C(=O)CN(C(=O)CN(C(=O)CNCCCCN)[C@@H](C)c1ccccc1)[C@@H](C)c1ccccc1)[C@@H](C)c1ccccc1)[C@@H](C)c1ccccc1)[C@@H](C)c1ccccc1)[C@@H](C)c1ccccc1)[C@@H](C)c1ccccc1 [TM1] (H-[Nlys][Nspe][Nspe][Nlys][Nspe][Nspe][Nlys][Nspe][Nspe][Nlys][Nspe][Nspe]-NH2)
Class (timing of growth arrest relative to IM permeabilization to proteins) (E. coli strain (CJW7845)): I | Type (relative timing of OM and IM permeabilization) (E. coli strain (CJW7845)): B (type B AMPs and PMs permeabilize the IM well before (>10 min) the OM) | OM-permeabilized cells among IM-permeabilized cells (E. coli strain (CJW7845)): 24/97 | OM-permeabilized cells (out of all IM-permeabilized cells) (E. coli strain (CJW7845)): 77/171
